These results are taken from article PMC7203245, “Lacosamide intake during pregnancy increases the incidence of foetal malformations and symptoms associated with schizophrenia in the offspring of mice” (Scientific Reports, 2020).

Series [1] relates to adult male mice. The series can be described thus: Dark-light emergence task. The note with it: 40 mg/kg in utero; 5 minutes. The class given is in vivo. How it is done:
(§1) All trials were performed by an experimenter blind to the drug treatment.
Dark-light emergence task. Anxiety-like behaviour was determined in mice using the dark-light emergence test. Testing was carried out in a white open field (50 x 50 cm) containing a small opaque chamber (12 x 12 cm) situated in the centre. The open field was illuminated by a lamp directed at the centre of the field (120 lux focused on the floor). Mice were moved to the testing room 1 hour prior to behavioural testing and they were introduced into the unfamiliar test environment by placing them into the small chamber and recording their behaviour over 5 minutes with a video camera. The total time spent outside the chamber was then quantified by reviewing the video recording.

Series [2] is described as follows: LCM and related compounds (RC) in embryos and mothers' serum by high-resolution MS/MSe. The class given is in vivo, mice. The note with it: Maternal Dose 10 mg/kg. How it is done: Samples were extracted as described previously[25] with slight modifications. Briefly, embryos were rinsed with cold saline and ultrapure water, and their wet-weight was determined. […] The mixture was vortexed vigorously for 3 min and centrifuged at 13,000 g for 5 min. The supernatant was transferred to a new Eppendorf tube and evaporated to dryness in a stream of nitrogen gas. The residue was reconstituted with 50 µL of LC-MS Ultrapure water, vortexed for 20 s and centrifuged at 13,000 g for 5 min. The supernatant was transferred to a conic micro insert to be injected onto the UHPLC system.
MS spectra data were collected between m/z 50 and 1000, and MS/MS spectra were registered between 50-300 Da. […] The MS^e procedure was used to identify metabolites in positive ionization mode. UPLC–QTOF-MS^e detection collects data using two scan functions, providing fragment ion information without precursor ion selection. A characteristic m/z in the low energy function allows identification through the fragment ions obtained with the high collision energy function. Two functions were acquired at different collision energies: a low energy function obtained at 2 eV; and a high-energy function obtained using a collision energy ramp ranging from 15 to 30 eV and spectra data collected between m/z 50 and 800. The data station operating the software was a MassLynx version 4.1, while metabolites were identified by means of Metabolynx XS (Waters, Micromass, Manchester, UK).
In this work the following routes were selected for these searches: phase I metabolites Reduction (+H2), Hydroxylation (O), Hydration (+H2O), 2xHydroxylation (+O2), Deacetylation (-C2H2O) and Demethylation (-CH2); and phase II metabolites Acetylation (+C2H2O) and Glucuronide (+C6H8O6).

Series [3] deals with adult male mice. The series can be described thus: Predator test. In kind it is in vivo. How it is done:
as §1
Predator test. The predator test was performed in a rectangular arena (55 x 40 x 40 cm) where a small tube was placed in a corner. The subject mouse was first placed in the area with the empty tube for 5 mins and afterwards, the tube was filled with material from a cage that housed a rat and the mice were allowed to explore the entire fear test box for 10 mins. The time spent by the mice sniffing the tube full of the rat’s material was measured with the aid of the camera fitted to the top of the box.

In a further series the test system is pups. Nature of the series: Litter loss, neonatal lethality and body weight of pups born to dams given LCM during gestation. The class given is in vivo, mice. The note with it: for weight gain from P2 to P13: higher dose. How it is done:
Thus, we used 10, 40, 80 and 120 mg/kg in mice, which corresponded to 56.7, 227, 454 and 681 mg/day in humans, considering an average weight of human to be 70 kg and that of mice to be 30 gr[52],[55]. Controls were administered the vehicle alone: saline solution 0.9% w/v. […] A total of 32 dams were initially treated daily, two days before mating and until the 14th day post-coitus. […] In the breastfeeding period, females were not under treatment given that a person will bottle feed the baby if they were on medication.
In this part of the study, dams were treated until the day of delivery. After analysing the embryo toxicity data, the treatments were categorized as controls (saline vehicle solution alone), low dose (40 mg/kg) and high dose (120 mg/kg). […] The day of birth was designated as postnatal day (P) P0 and the litter size delivered by each dam was recorded, checking each pup for gross abnormalities. Pups were nursed by their natural dams until weaning and from PD 2, the pups were weighed and neonatal behavioural tests were carried out on 12 control mice, 12 low dose and 10 high dose mice from 7 litters. During testing whole litters were separated from the dams and maintained for 30 min in a warm environment. At this stage, males and females were pooled for neurodevelopmental screening. All testing was performed between 07:30 a.m. and 12:00 a.m., and the mice were weighed before performing the tests.

Series [4] concerns adult male mice. The series can be described thus: Y maze working memory test. In kind it is in vivo. The note with it: mice from dams exposed to LCM vs control. How it is done: as §1
Y maze. The Y maze used had three equal sized arms (8 x 40 x 20 cm), with white opaque walls at a 120° angle from each other. After introduction to the centre of the maze, the mice was allowed to freely explore the three arms during 5 minutes, recording the number of arm entries and the number of triads in order to calculate the alternation. An entry was considered to occur when all four limbs are within the arm. The success of the triplet was taken into account when mice visited the three arms in three consecutive arm entries showing normal novelty preference and working memory.

Where [5] appears, read: higher dose (120 mg/kg) to dams during gestation.
Where [6] appears, read: lower dose (40 mg/kg) to dams during gestation.

`COC[C@@H](NC(C)=O)C(=O)NCc1ccccc1` [LCM, R-2-acetamido-N-benzyl-3-methoxypropionamide]: the “time spent in the dark compartment (emergence test)” value in the series on adult male mice [1] came out at 217.2 ± 11.19 s. The “Embryos in which the LCM compound is present” value in series [2] is “Embryo1 and 2”. Moreover, the “time sniffing the predator's material” value was determined as 22.85 ± 4.07% in the series on adult male mice [3] (40 mg/kg in utero) and 22.91 ± 2.08% in the series on adult male mice [3] (120 mg/kg in utero). The “dams that never gained weight, suggesting that they lost their litters” value in the series on pups (40 mg/kg LCM daily from second day of gestation to birth) is on record as 1/5; with pups (120 mg/kg LCM daily from second day of gestation to birth), 2/8. In the series on pups (both LCM doses (40 and 120 mg/kg in utero), adult mice), the “body weight differences in adults” value was “disappeared”. In addition, the “neonatal lethality (%)” value in the series on pups (setting [5]) turned out to be 15.38%; with pups (setting [6]), 9%. Also, the “neonatal lethality (pups)” value is 10/65 with pups (setting [5]) and 3/33 in the series with pups (setting [6]). In addition, the “weight gain from P2 to P13” value in the series with pups (litter that died in the perinatal nursing period) amounted to 2 g; in the series on pups (other pups under the same condition) it was 6.1 g. In the series with pups (one dam exposed to higher dose), the “pups of an entire litter that died in the perinatal nursing period (P15-16)” value stood at 11 pups. For the same molecule, the “arm alternation in Y-maze” value with adult male mice [4] (p = 0.04) is “decrease in alternation”. Moreover, the “locomotion in Y-maze” value in the series on adult male mice [4] (p = 0.087) is on record as “mild increase in locomotion”.
